Results: patent US20100210602A1, “PhoU (PerF), A P[…] INVOLVED IN [sequence] FORMATION AND TOLERANCE TO MULTIPLE ANTIBIOTICS AND [sequence] AS A DRUG TARGET FOR [sequence] BACTERIA” (priority 2006, published 2010)
Values after ≈ are worked out from the molar mass of the structure shown. Like-named read-outs stand apart in the source and are kept apart here.

Columns and labels:
[1] = test system: PhoU mutant (JHU-313); experiment: Sequential antibiotic exposure of ampicillin persisters (CFU); type: cell-based, E. coli
[2] = test system: PhoU deletion mutant (ΔphoU); type: cell-based
[3] = test system: JHU-313 containing pVector; experiment: Kirby-Bauer paper disc assay, zone inhibition; settings: Escherichia coli, read-out: zone inhibition
Description: (§1) The sensitivity of the bacterial strains to antibiotics or peroxide was determined by Kirby-Bauer's paper disc assay as measured by zone inhibition in millimeters.
(§2) The sensitivity of bacterial strains to antibiotics or stresses was also assessed by the Kirby-Bauer method (2) using paper discs. E. coli bacteria were grown to log phase (10^8 bacteria) in LB broth. An inoculum from this culture was spread across the surfaces of LB plates to provide confluent growth. Nitrocellulose discs (7 mm in diameter) soaked with appropriate antibiotics or stress agents (100 mM H2O2, were placed on the agar surface). After incubation at 37° C. for 48 h, the diameter of the zone of growth inhibition was measured and scored according to the size of the zone of inhibition, which is directly proportional to the sensitivity of the organism to the antibiotic.

[4] = test system: PhoU transposon mutant (JHU-313); type: cell-based
[5] = test system: JHU-313 containing pPhoU; experiment: MIC/MBC by serial two-fold dilutions in LB broth; type: cell-based, E. coli; settings: Escherichia coli, 16 h at 37° C.
[6] = test system: JHU-313; experiment: Kirby-Bauer paper disc assay, zone inhibition; settings: Escherichia coli, read-out: zone inhibition
Description: as §1, §2

[7] = test system: wild type strain W3110; type: cell-based
[8] = test system: JHU-313 containing pPhoU; experiment: Kirby-Bauer paper disc assay, zone inhibition; settings: Escherichia coli, read-out: zone inhibition
Description: as §1, §2

[9] = test system: wild type strain W3110; type: cell-based, E. coli
[10] = test system: JHU-313 containing pVector; experiment: MIC/MBC by serial two-fold dilutions in LB broth; type: cell-based, E. coli; settings: Escherichia coli, 16 h at 37° C.
[11] = test system: W3110; experiment: microbe, parasite or virus in culture; settings: Escherichia coli, read-out: zone inhibition
Description: as §1, §2

[12] = test system: wild type strain W3110; experiment: microbe, parasite or virus in culture; type: cell-based, E. coli; settings: Escherichia coli, W3110, LB broth, 16 h at 37° C.
[13] = test system: PhoU mutant (JHU-313); experiment: MIC/MBC by serial two-fold dilutions in LB broth; type: cell-based, E. coli; settings: Escherichia coli, 16 h at 37° C.
[14] = biological target: T1, PhoU (Escherichia coli, UniProt P0A9K7); experiment: PhoU phosphatase substrate specificity; type: biochemical, E. coli; settings: pH5, pH7 and pH8
T1 construct: His; made in house
T1 sequence (P0A9K7 whole entry): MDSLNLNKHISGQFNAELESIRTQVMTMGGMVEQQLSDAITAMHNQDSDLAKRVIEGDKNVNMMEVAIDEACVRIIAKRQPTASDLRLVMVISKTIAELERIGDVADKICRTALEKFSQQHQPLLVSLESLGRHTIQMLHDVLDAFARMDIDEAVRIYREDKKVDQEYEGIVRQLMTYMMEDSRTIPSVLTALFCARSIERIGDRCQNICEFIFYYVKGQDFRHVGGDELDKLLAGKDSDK
Description: Different substrates for the PhoU phosphatase activity were tested. […] For PhoU, the substrates acetyl-P, carbamoyl-P, imido-di phosphate (imido-di-P), r-nitrophenyl phosphate (rNPP), β-Nicotinamide adenine dinucleotide phosphate (NADP), Glucose-1,6-bisphosphate (Glucose-1,6-bisP) were tested at pH5, pH7, and pH8 condition, as potential PhoU phosphatase activity.

[15] = 20 h after 1.5 h ampicillin pre-exposure, ampicillin 100, gentamicin 20, trimethoprim 16, norfloxacin 5 μg/ml
[16] = log phase, ampicillin 100 μg/ml, 1.5 h
[17] = log phase, 1 week, Ap100, Norf3
[18] = log phase, 5 hr, ampicillin 100 μg/ml (Ap100), norfloxacin 3 μg/ml (Norf3)
[19] = log phase, 3 days, Ap100, Norf3
[20] = log phase, 5 days, Ap100, Norf3
[21] = log phase, 10 days, Ap100, Norf3
[22] = log phase, ampicillin 100 μg/ml, norfloxacin 3 μg/ml
[23] = stationary phase, 1 week, Ap100, Norf3
[24] = stationary phase, 5 hr, ampicillin 100 μg/ml (Ap100), norfloxacin 3 μg/ml (Norf3)
[25] = stationary phase, 3 days, Ap100, Norf3
[26] = stationary phase, 5 days, Ap100, Norf3
[27] = stationary phase, 10 days, Ap100, Norf3
[28] = log phase, 100 μg/ml, 24 hr exposure
[29] = stationary phase, 100 μg/ml, 72 hr
[30] = stationary phase, 1 day, Ap100, Norf3

SMILES: CC1(C)S[C@@H]2[C@H](NC(=O)[C@H](N)c3ccccc3)C(=O)N2[C@H]1C(=O)O [Ampicillin, ampicillin]
- CFU after second antibiotic exposure [1, 15]: 0 CFU/ml
- decrease in CFU count ([1]; log phase, 100 μg/ml, 1.5 hr): 3 log
- CFU after ampicillin treatment [1, 16]: 4 × 10^4 CFU/ml
- CFU [2, 17]: 0 CFU
- CFU [2, 18]: 6 × 10^2 CFU
- CFU ([2]; log phase, 1 day, Ap100, Norf3): 0-1 CFU
- CFU [2, 19]: 0 CFU
- CFU [2, 20]: 0 CFU
- CFU [2, 21]: 0 CFU
- time to killing of all cells [2, 22]: all cells were killed by three days
- CFU [2, 23]: 0 CFU
- CFU [2, 24]: 6 × 10^8 CFU
- CFU [2, 25]: 0 CFU
- CFU [2, 26]: 0 CFU
- CFU [2, 27]: 0 CFU
- zone of inhibition at 1.5 µg/mL [3]: 27 mm
- zone of inhibition at 6 µg/mL [3]: 34 mm
- zone of inhibition at 25 µg/mL [3]: 40 mm
- zone of inhibition at 100 µg/mL [3]: 45 mm
- killed more than the wild type strain ([4]; log phase, 100 μg/ml, 3 hr): about 100 fold
- viable cells remaining [4, 28]: no viable cells remained
- CFU [4, 17]: 0 CFU
- CFU [4, 18]: 20 CFU
- CFU ([4]; log phase, 1 day, Ap100, Norf3): 0-1 CFU
- CFU [4, 19]: 0 CFU
- CFU [4, 20]: 0 CFU
- CFU [4, 21]: 0 CFU
- time to killing of all cells [4, 22]: all cells were killed by three days
- sterilization of culture [4, 29]: completely sterilized
- CFU [4, 23]: 0 CFU
- CFU [4, 24]: 2 × 10^8 CFU
- CFU [4, 30]: 1 × 10^7 CFU
- CFU [4, 25]: 0 CFU
- CFU [4, 26]: 0 CFU
- CFU [4, 27]: 0 CFU
- MBC ([5]; read-out: MBC): 12.5 µg/mL (≈ 35.8 µM)
- MIC ([5]; read-out: MIC): 3.1 µg/mL (≈ 8.87 µM)
- zone of inhibition at 1.5 µg/mL [6]: 25 mm
- zone of inhibition at 6 µg/mL [6]: 30 mm
- zone of inhibition at 25 µg/mL [6]: 35 mm
- zone of inhibition at 100 µg/mL [6]: 40 mm
- viable bacteria left [7, 28]: 10-100
- CFU [7, 17]: 0 CFU
- CFU [7, 18]: 3 × 10^3 CFU
- CFU ([7]; log phase, 1 day, Ap100, Norf3): 10 CFU
- CFU [7, 19]: 0 CFU
- CFU [7, 20]: 0 CFU
- CFU [7, 21]: 0 CFU
- time to killing of all cells [7, 22]: all cells were killed by three days
- viable cells [7, 29]: 10^8 CFU/ml
- CFU [7, 23]: 5 × 10^6 CFU
- CFU [7, 24]: 5 × 10^9 CFU
- CFU [7, 30]: 3 × 10^9 CFU
- CFU [7, 25]: 1 × 10^8 CFU
- CFU [7, 26]: 3 × 10^7 CFU
- CFU [7, 27]: 2 × 10^5 CFU
- zone of inhibition at 1.5 µg/mL [8]: 25 mm
- zone of inhibition at 6 µg/mL [8]: 32 mm
- zone of inhibition at 25 µg/mL [8]: 36 mm
- zone of inhibition at 100 µg/mL [8]: 40 mm
- CFU after second antibiotic exposure [9, 15]: 7 × 10^5 CFU/ml
- decrease in CFU count ([9]; log phase, 100 μg/ml, 1.5 hr): 3 log
- CFU after ampicillin treatment [9, 16]: 7 × 10^4 CFU/ml
- MBC ([10]; read-out: MBC): 6.25 µg/mL (≈ 17.9 µM)
- MIC ([10]; read-out: MIC): 3.1 µg/mL (≈ 8.87 µM)
- zone of inhibition at 1.5 µg/mL [11]: 21 mm
- zone of inhibition at 6 µg/mL [11]: 25 mm
- zone of inhibition at 25 µg/mL [11]: 28 mm
- zone of inhibition at 100 µg/mL [11]: 35 mm
- MBC ([12]; read-out: MBC): 12.5 µg/mL (≈ 35.8 µM)
- MIC ([12]; read-out: MIC): 3.1 µg/mL (≈ 8.87 µM)
- MBC ([13]; read-out: MBC): 6.25 µg/mL (≈ 17.9 µM)
- MIC ([13]; read-out: MIC): 1.5 µg/mL (≈ 4.29 µM)

SMILES: O=P(O)(O)OC[C@H]1O[C@H](OP(=O)(O)O)[C@H](O)[C@@H](O)[C@@H]1O [Glucose-1,6-bisP, Glucose-1,6-bisphosphate]
- rank as PhoU phosphatase substrate [14]: acetyl-P>rNPP>carbamoyl-P>Glucose-1,6-bisP>NADP
